Measurements: US6342494B1, “Carbapenem compounds, use thereof, and intermediate compounds of the same” (Kyoto Pharmaceutical Industries, Ltd., priority 1997, dated 2002)

Experiments:
[1] = dogs, 20 mg/kg oral, measured as hydrolyzed carbapenem compound (A)
Protocol: The compound of the present invention (compound of Example 6, 20 mglkg) was orally administered to dogs (3 per group) and plasma hydrolyzed carbapenem compound (A) concentration at 0.25, 0.5, 1.0, 1.5, 2.0, 3.0, 4.0 and 6.0 hours later was measured by a paper disc method using test bacteria Escherichia coli NIHJ and nutrient agar medium (Difco).

[2] = dogs, 20 mg/kg oral, measured as hydrolyzed carbapenem compound (A); remark: listed apart in the source
Protocol: The compound of the present invention (compound of Example 6, 20 mg/kg) was orally administered to dogs (3 per group) and urinary hydrolyzed carbapenem compound (A) concentration at 0-3, 3-6 and 6-24 hours later was measured by a paper disc method using test bacteria Escherichia coli NIHJ and nutrient agar medium (Difco). The urinary recovery percentage was determined.

For Cc1oc(=O)oc1CN1C[C@@H](SC2=C(C(=O)OCOC(=O)C(C)(C)C)N3C(=O)[C@H]([C@@H](C)O)[C@H]3[C@H]2C)C[C@H]1C(=O)N(C)C.Cl [Example 6, Pivaloyloxymethyl (1R,5S,6S)-2-{(3S,5S)-[5-N,N-dimethylaminocarbonyl-1-(5-methyl-2-oxo-1,3-dioxolen-4-yl)methyl]pyrrolidin-3-ylthio}-6-[(1R)-1-hydroxyethyl]-1-methylcarbapen-2-em-3-carboxylate hydrochloride], which “concentration in plasma (μg/ml) 0.25 hr” value ([1]; 0.25 hr) is on record?
The value was 5.06 µg/mL.

And the “concentration in plasma (μg/ml) 0.5 hr” value ([1]; 0.5 hr)?
The value was 6.56 µg/mL.

And the “concentration in plasma (μg/ml) 1.0 hr” value ([1]; 1.0 hr)?
Its value is 7.60 µg/mL.

What about the “concentration in plasma (μg/ml) 1.5 hr” value ([1]; 1.5 hr) of the same compound?
Its value is 7.67 µg/mL.

And the “concentration in plasma (μg/ml) 2.0 hr” value ([1]; 2.0 hr)?
The value was 5.92 µg/mL.

What about the “concentration in plasma (μg/ml) 3.0 hr” value ([1]; 3.0 hr) of the same compound?
Its value is 3.68 µg/mL.

And the “concentration in plasma (μg/ml) 4.0 hr” value ([1]; 4.0 hr)?
The value was 1.92 µg/mL.

And the “concentration in plasma (μg/ml) 6.0 hr” value ([1]; 6.0 hr)?
Its value is 0.43 µg/mL.

And the “urinary recovery (%) 0-3 hr” value ([2]; 0-3 hr)?
Its value is 10.3%.

And the “urinary recovery (%) 0-24 hr” value ([2]; 0-24 hr)?
Its value is 13.0%.

What about the “urinary recovery (%) 3-6 hr” value ([2]; 3-6 hr) of the same compound?
Its value is 2.4%.

And the “urinary recovery (%) 6-24 hr” value ([2]; 6-24 hr)?
Its value is 0.3%.
